From ChEMBL document CHEMBL4371047, “Effect of α-Methoxy Substitution on the Anti-HIV Activity of Dihydropyrimidin-4(3 H)-ones” (J Med Chem, 2019) come the findings set out here.

In series [1] the test system is Human immunodeficiency virus type 1 reverse transcriptase (Human immunodeficiency virus 1), Q72547 [K103N].
Description: Inhibition of recombinant HIV-1 His-tagged reverse transcriptase p66/p51 K103N mutant expressed in Escherichia coli assessed as reduction in [3H]dTTP incorporation using poly(rA)/oligo(dT) as template/primer after 20 mins by scintillation counting analysis
Series [2] deals with Human immunodeficiency virus type 1 reverse transcriptase (Human immunodeficiency virus 1), Q72547 [L100I].
Series [3] relates to Human immunodeficiency virus type 1 reverse transcriptase (Human immunodeficiency virus 1), Q72547 [Y181I].
Series [4] has as its system Human immunodeficiency virus 1. In words: Antiviral activity against HIV-1 harboring reverse transcriptase K103N mutant infected in human MT4 cells assessed as inhibition of virus-induced cytopathic effect after 5 days by MTT assay. The class given is functional, organism-based. Conditions: Human immunodeficiency virus 1, MT4, 120 h.
For series [5], the target named is Human immunodeficiency virus type 1 reverse transcriptase (Human immunodeficiency virus 1) (UniProt Q72547).
Description: Inhibition of recombinant wild type HIV-1 His-tagged reverse transcriptase p66/p51 expressed in Escherichia coli assessed as reduction in [3H]dTTP incorporation using poly(rA)/oligo(dT) as template/primer after 20 mins by scintillation counting analysis
Series [6] deals with Human immunodeficiency virus 1. In words: Resistance index, ratio of ID50 for recombinant HIV-1 His-tagged reverse transcriptase p66/p51 Y181I mutant to ID50 for recombinant wild type HIV-1 reverse transcriptase His-tagged p66/p51.
Series [7] concerns Human immunodeficiency virus 1. In words: Resistance index, ratio of ID50 for recombinant HIV-1 His-tagged reverse transcriptase p66/p51 K103N mutant to ID50 for recombinant wild type HIV-1 reverse transcriptase His-tagged p66/p51.
Series [8] is described as follows: Therapeutic index, ratio of CC50 for human MT4 cells to EC50 for HIV-1 NL4-3 infected in human MT4 cells. Type of series: toxicity, cell-based. Conditions: read-out: Ratio CC50/EC50.
Series [9] in a line: Cytotoxicity against human MT4 cells assessed as reduction in cell viability after 5 days by MTT assay. Type of series: cell-based.
In series [10] the test system is Human immunodeficiency virus 1. The series can be described thus: Resistance index, ratio of EC50 for HIV-1 harboring reverse transcriptase Y181C mutant to EC50 for wild type HIV-1 NL4-3. Type of series: functional.
In series [11] the test system is Human immunodeficiency virus 1. The series can be described thus: Antiviral activity against HIV-1 harboring reverse transcriptase Y188L mutant infected in human MT4 cells assessed as inhibition of virus-induced cytopathic effect after 5 days by MTT assay. Conditions: Human immunodeficiency virus 1, MT4, 120 h. Type of series: functional, organism-based.
Series [12] concerns Human immunodeficiency virus 1. The series can be described thus: Resistance index, ratio of EC50 for HIV-1 harboring reverse transcriptase K103N mutant to EC50 for wild type HIV-1 NL4-3. The class given is functional.
For series [13], the system named is Human immunodeficiency virus 1. The series can be described thus: Antiviral activity against wild type HIV 1 NL4-3 infected in human MT4 cells assessed as inhibition of virus-induced cytopathic effect after 5 days by MTT assay. Type of series: functional, organism-based. Conditions: Human immunodeficiency virus 1, NL4-3, MT4, 120 h.
For series [14], the system named is Human immunodeficiency virus 1. The series can be described thus: Antiviral activity against HIV 1 harboring reverse transcriptase Y181C mutant infected in human MT4 cells assessed as inhibition of virus-induced cytopathic effect after 5 days by MTT assay. The class given is functional, organism-based. Conditions: Human immunodeficiency virus 1, MT4, 120 h.
The test system of series [15] is Human immunodeficiency virus 1. The series can be described thus: Resistance index, ratio of EC50 for HIV-1 harboring reverse transcriptase Y188L mutant to EC50 for wild type HIV-1 NL4-3. The class given is functional.
The subject of series [16] is Human immunodeficiency virus 1. In words: Resistance index, ratio of ID50 for recombinant HIV-1 His-tagged reverse transcriptase p66/p51 L100I mutant to ID50 for recombinant wild type HIV-1 reverse transcriptase His-tagged p66/p51.

For `CCCNc1nc(C(OC)c2c(F)cccc2Cl)c(C)c(=O)[nH]1` (stereo not drawn), the ID50 in series [1] was 540 nM; in series [2] it was 1700 nM; in series [3] it was 2800 nM; in series [5], 65 nM. For the same compound, the EC50 in series [4] was determined as 150 nM; in series [11] it was 5 µM; in series [13], 9 nM; in series [14], 940 nM. The figures for the Ratio in series [6] and in series [7] were 43 and 8, respectively. Further, in series [8], the selectivity ratio amounted to 8600. The CC50 at 120 h in series [9] was 77.4 µM. For the same compound, the figures for the “Ratio EC50” value in [10], in series [12] and in series [15] were 104, 17 and 555, respectively.

For `COC(c1nc(NC2CCCC2)[nH]c(=O)c1C)c1c(Cl)cccc1Cl` (stereo not drawn), the ID50 turned out to be 540 nM in [1], 1900 nM in series [2], 2400 nM in series [3] and 56 nM in [5]. Further, the EC50 in series [4] is 840 nM; in [11] it was 5.4 µM; in series [13], 10 nM; in [14], 1400 nM. For the same compound, the Ratio is 43 in series [6], 10 in series [7] and 34 in [16]. The selectivity ratio in [8] was determined as 3400. Besides, in [9], the CC50 at 120 h was 34 µM. Also, the “Ratio EC50” value in [10] is reported as 140; in series [12] it was 84; in series [15] it was 540.

For `COC(c1nc(SC(C)C)[nH]c(=O)c1C)c1c(Cl)cccc1Cl` (stereo not drawn), the ID50 was 9300 nM in series [1], 7900 nM in series [2], more than 40000 nM in [3] and 59 nM in series [5]. Besides, the EC50 was 1900 nM in series [4], 7.2 µM in series [11], 4 nM in series [13] and 3200 nM in [14]. Besides, the Ratio in [7] worked out at 158; in series [16] it was 134. In series [8], the selectivity ratio was 12900. Further, the CC50 at 120 h in series [9] is 51.7 µM. Besides, the “Ratio EC50” value is recorded as 800 in [10], 475 in series [12] and 1800 in [15].

`Cc1c(C(C)c2c(F)cccc2F)nc(SC(C)C)[nH]c1=O` (stereo not drawn): in series [8], the selectivity ratio is more than 3000. The CC50 at 120 h in series [9] is more than 3 µM.

In the case of `CCCN(C)c1nc([C@@H](OC)c2c(Cl)cccc2Cl)c(C)c(=O)[nH]1`, the ID50 was determined as 438 nM in [1], 4300 nM in [2], 8700 nM in [3] and 177 nM in [5]. Further, the EC50 in [4] was 185 nM; in [11], 0.38 µM; in series [13], 15 nM; in series [14], 185 nM. In addition, the Ratio in [6] stood at 49; in [7] it was 2; in series [16] it was 24. Also, in series [8], the selectivity ratio is 3010. Besides, the CC50 at 120 h in [9] is 45.2 µM. Moreover, the results for the “Ratio EC50” value in [10], in series [12] and in series [15] were 12, 12 and 25, respectively.

For the compound `CCCNc1nc(C(OC)c2c(Cl)cccc2Cl)c(C)c(=O)[nH]1` (stereo not drawn), the ID50 in [1] was determined as 1600 nM; in series [2] it was 2200 nM; in series [3], 3700 nM; in [5], 120 nM. The half-maximal effective concentration (EC50) amounted to 210 nM in [4], 7.6 µM in [11], 15 nM in series [13] and 1700 nM in series [14]. Moreover, the Ratio in series [6] was found to be 31; in [7], 13; in series [16] it was 18. Also, in series [8], the selectivity ratio came out at 3280. In addition, the 50% cytotoxic concentration (CC50) at 120 h in [9] came to 49.2 µM. Further, the “Ratio EC50” value in series [10] is listed as 113; in [12], 14; in [15], 507.

For `CO[C@@H](c1nc(SC(C)C)[nH]c(=O)c1C)c1c(F)cccc1Cl`, the ID50 in series [1] was found to be 35 nM; in series [2] it was 400 nM; in [3], 1100 nM; in series [5] it was 2 nM. Moreover, the EC50 in series [4] turned out to be 0.6 nM; in [11], 0.001 µM; in series [13], 0.09 nM; in series [14] it was 0.9 nM. Also, the Ratio in series [6] came to 550; in series [7], 17; in [16], 200. The selectivity ratio in [8] was more than 722000. Besides, the CC50 at 120 h in series [9] was more than 65 µM. In addition, the results for the “Ratio EC50” value in series [10], in [12] and in series [15] were 10, 10 and 11, respectively.

As to `CCC(c1nc(SC2CCCC2)[nH]c(=O)c1C)c1c(F)cccc1Cl` (stereo not drawn), the ID50 in [1] was found to be 340 nM; in series [2], 68 nM; in series [5], 4 nM. Further, the EC50 in series [4] is more than 3000 nM. Further, the selectivity ratio in series [8] is more than 5. Besides, in series [9], the cytotoxic concentration (CC50) at 120 h is more than 3 µM.

Take `CCC(C)Sc1nc(C(CC)c2c(F)cccc2Cl)c(C)c(=O)[nH]1` (stereo not drawn): the ID50 amounted to 450 nM in series [1], 120 nM in [2] and 2 nM in [5]. For the same compound, the EC50 in series [4] is more than 3000 nM. The selectivity ratio in series [8] is more than 56. Also, the CC50 at 120 h in series [9] is more than 3 µM.

Regarding `CO[C@H](c1nc(SC(C)C)[nH]c(=O)c1C)c1c(F)cccc1Cl`, the ID50 in series [1] was 950 nM; in series [2], 12300 nM; in series [3], 5800 nM; in series [5] it was 77 nM. Besides, the half-maximal effective concentration (EC50) in [4] turned out to be 380 nM; in series [11], 3.8 µM; in series [13], 35 nM; in series [14], 1350 nM. The results for the Ratio in series [6], in [7] and in series [16] were 75, 12 and 160, respectively. Besides, in series [8], the selectivity ratio is more than 1160. In addition, the CC50 at 120 h in series [9] is more than 40.5 µM. Further, the “Ratio EC50” value in series [15] is recorded as 75.

For the compound `CCCN(C)c1nc(C(OC)c2c(F)cccc2F)c(C)c(=O)[nH]1` (stereo not drawn), the ID50 is 150 nM in [1], 1400 nM in series [2], 1200 nM in series [3] and 35 nM in series [5]. Moreover, the EC50 in series [4] stood at 31 nM; in series [11], 0.23 µM; in series [13], 5 nM; in [14], 180 nM. Besides, the Ratio stood at 34 in [6], 4 in [7] and 40 in series [16]. The selectivity ratio in series [8] was more than 15600. Also, the cytotoxic concentration (CC50) at 120 h in [9] is more than 77.8 µM. The results for the “Ratio EC50” value in [10] and in series [15] were 20 and 26, respectively.

Take `CCC(c1nc(SC(C)C)[nH]c(=O)c1C)c1c(F)cccc1Cl` (stereo not drawn): the ID50 is 420 nM in [1], 120 nM in series [2] and 6 nM in series [5]. In addition, the EC50 in series [4] was more than 3000 nM. The selectivity ratio in [8] was more than 36. For the same compound, the CC50 at 120 h in series [9] is more than 3 µM.

`CCC(C)Sc1nc(C(OC)c2c(Cl)cccc2Cl)c(C)c(=O)[nH]1` (stereo not drawn): the ID50 is 3700 nM in [1], 5200 nM in series [2], more than 40000 nM in series [3] and 15 nM in [5]. The EC50 in series [4] came to 770 nM; in [11], 5.8 µM; in series [13], 0.9 nM; in [14], 2800 nM. The values for the Ratio in series [7] and in series [16] were 247 and 347, respectively. Further, the selectivity ratio in series [8] stood at 36400. For the same compound, in series [9], the cytotoxic concentration (CC50) at 120 h is 32.8 µM. For the same compound, the entries for the “Ratio EC50” value in [10], in [12] and in series [15] were 3111, 856 and 6444, respectively.

Regarding `COC(c1nc(SC2CCCC2)[nH]c(=O)c1C)c1c(Cl)cccc1Cl` (stereo not drawn), the ID50 in series [1] was 12400 nM; in [2], 8400 nM; in [3], more than 40000 nM; in series [5] it was 95 nM. Besides, the EC50 in series [4] is 2900 nM; in series [11] it was 7.2 µM; in series [13] it was 8 nM; in [14], 4000 nM. Further, the Ratio is 131 in [7] and 88 in [16]. In series [8], the selectivity ratio amounted to 3660. In addition, the half-maximal cytotoxic concentration (CC50) at 120 h in series [9] worked out at 29.3 µM. In addition, the “Ratio EC50” value in series [10] amounted to 500; in series [12], 362; in [15], 900.

Take `CCCN(C)c1nc(C(OC)c2c(F)cccc2Cl)c(C)c(=O)[nH]1` (stereo not drawn): the ID50 in series [1] is 288 nM; in [2], 950 nM; in series [3], 1100 nM; in [5], 26 nM. The concentration for a half-maximal effect (EC50) worked out at 12 nM in [4], 0.12 µM in series [11], 4 nM in series [13] and 98 nM in series [14]. The Ratio in series [6] is 42; in series [16], 36. For the same compound, the selectivity ratio in series [8] was more than 18500. Also, the CC50 at 120 h in series [9] is more than 74.1 µM. Also, the “Ratio EC50” value in series [10] is recorded as 24; in series [12] it was 3; in series [15], 30.
